Experimental data as given in publication PMC8230474, “Synthesis of Novel Acyl Derivatives of 3-(4,5,6,7-Tetrabromo-1H-benzimidazol-1-yl)propan-1-ols—Intracellular TBBi-Based CK2 Inhibitors with Proapoptotic Properties” (International Journal of Molecular Sciences, 2021).
Read-outs that look alike come from different tables or passages of the source.

How the values were obtained:
[1] = test system: MCF-7 cells; test: MTT viability assay, MCF-7; assay type: cell-based; details: Homo sapiens
Experimental: (§1) To test the anti-cancer effect of the TBBi derivatives, we treated the MCF-7 and MDA-MB-231 cells with the newly synthesized esters and previously reported compounds [34, 57] at the concentration range of 3.125 to 200 µM for 24 h, 48 h and 72 h. Additionally, the range of concentrations was extended by additional lower concentrations in MCF-7 for compound 4 with the minimum concentration of 0.195 µM. […] The EC50 values, describing the half maximal effective concentration of each tested compound, were calculated and are summarized in Table 2. […] We observed that the EC50 values increase in both cell lines with the elongation of fatty acids chain length in the tested compounds, thus strongly correlating with the decrease of their solubility in biological media as characterized by logS parameter (Table 2). The second reason for the decreased biological activity of the longer-chain aliphatic esters might be attributed to their greater resistance toward intracellular hydrolysis, which directly influences the slower release of the active form of the corresponding CK2 inhibitors. […] However, none of the tested compounds, except for compound 5, decreased the viability of both cell lines in a time-dependent manner (Figure 4).
(§2) MCF-7 and MDA-MB-231 were cultured in high-glucose Dulbecco’s modified Eagle medium (DMEM, Lonza, Basel, Switzerland) supplemented with 10% fetal bovine serum (FBS, EuroClone, Siziano, Italy)), 2 mM L-glutamine, and antibiotics (100 U/mL penicillin, 100 µg/mL streptomycin) (Sigma-Aldrich Chemical Company (St. Louis, MO, USA). Cells were grown in 75-cm^2 cell culture flasks (Sarstedt, Nümbrecht, Germany) in a humidified atmosphere of CO2/air (5%/95%) at 37 °C. All the experiments were performed in exponentially growing cultures. Stock solutions of the test compounds were prepared in DMSO and stored in −80 °C for a maximum of one month. For the cytotoxicity studies, stock solutions of the tested compounds were diluted 200-fold with the proper culture medium to obtain the final concentrations.
(§3) After incubation with the tested compounds, an MTT test was performed as described previously. Optical densities were measured at 570 nm using BioTek microplate reader (Winooski, VT, USA). All measurements were carried out in a minimum of three biological replicates.

[2] = test system: MDA-MB-231 cells; test: MTT viability assay, MDA-MB-231; assay type: cell-based; details: Homo sapiens
Experimental: as §1, §2, §3

[3] = test system: MCF-7 cells; test: Cell cycle progression by flow cytometry, MCF-7; assay type: cell-based, human; details: MCF-7, 72 h, compound at its EC50
[4] = target: PIM1 (Homo sapiens, UniProt P11309); test: Radiometric (P81 filter isotopic) kinase assay, PIM1; assay type: biochemical; details: for remaining activity at 5 µM: 5 µM compound; for remaining activity at 5 µM / remaining activity at 10 µM: read-out: Residual Activity of the Enzyme PIM1; for remaining activity at 10 µM: 10 µM compound; for Ki: calculated from IC50 by Cheng and Prusoff equation
Chain of PIM1 (P11309 whole entry, species assumed): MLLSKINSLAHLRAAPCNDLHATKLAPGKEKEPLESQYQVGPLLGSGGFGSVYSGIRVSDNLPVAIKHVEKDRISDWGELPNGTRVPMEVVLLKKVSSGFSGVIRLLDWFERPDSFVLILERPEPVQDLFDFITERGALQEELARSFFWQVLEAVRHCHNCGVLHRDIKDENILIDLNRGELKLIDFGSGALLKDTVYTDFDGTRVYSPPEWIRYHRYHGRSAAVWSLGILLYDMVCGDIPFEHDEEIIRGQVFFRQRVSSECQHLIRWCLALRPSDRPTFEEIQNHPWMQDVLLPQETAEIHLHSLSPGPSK

[5] = target: human CK2 catalytic subunit (CK2α) (Homo sapiens, UniProt P68400); test: Radiometric (P81 filter isotopic) kinase assay, CK2 catalytic subunit; assay type: biochemical; details: for remaining activity at 5 µM: 5 µM compound; for remaining activity at 5 µM / remaining activity at 10 µM: read-out: Residual Activity of the Enzyme CK2α; for remaining activity at 10 µM: 10 µM compound
Chain of human CK2 catalytic subunit (CK2α) (P68400 whole entry): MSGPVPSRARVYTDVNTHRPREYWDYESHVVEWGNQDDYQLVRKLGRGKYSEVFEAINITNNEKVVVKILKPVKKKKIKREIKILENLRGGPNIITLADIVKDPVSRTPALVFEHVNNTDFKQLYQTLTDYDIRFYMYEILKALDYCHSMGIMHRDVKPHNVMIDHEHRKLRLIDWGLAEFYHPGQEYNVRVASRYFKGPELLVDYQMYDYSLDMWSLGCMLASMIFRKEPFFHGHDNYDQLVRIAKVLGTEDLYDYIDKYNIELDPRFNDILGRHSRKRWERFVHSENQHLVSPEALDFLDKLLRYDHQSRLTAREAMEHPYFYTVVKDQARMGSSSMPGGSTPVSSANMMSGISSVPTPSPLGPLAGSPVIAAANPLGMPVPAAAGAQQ

[6] = target: CK2 holoenzyme (CK2 α2β2) (Homo sapiens, UniProt P68400); test: Radiometric (P81 filter isotopic) kinase assay, CK2 holoenzyme; assay type: biochemical; details: for remaining activity at 5 µM: 5 µM compound; for remaining activity at 5 µM / remaining activity at 10 µM: read-out: Residual Activity of the Enzyme CK2 α2β2; for remaining activity at 10 µM: 10 µM compound; for Ki: calculated from IC50 by Cheng and Prusoff equation
Chain of CK2 holoenzyme (CK2 α2β2) (P68400 whole entry): as above
Chain of CK2 holoenzyme (CK2 α2β2) (P67870 whole entry partner): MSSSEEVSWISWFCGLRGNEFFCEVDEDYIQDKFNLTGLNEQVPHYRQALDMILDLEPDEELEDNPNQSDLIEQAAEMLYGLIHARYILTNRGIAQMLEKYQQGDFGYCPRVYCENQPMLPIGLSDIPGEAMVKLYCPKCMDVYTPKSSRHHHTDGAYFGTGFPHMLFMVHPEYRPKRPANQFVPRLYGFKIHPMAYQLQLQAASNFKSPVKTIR

[7] = MCF7, 24 h, 48 h and 72 h, read-out: EC50 MCF-7
[8] = MCF7, 24 h, read-out: EC50 ± SD MCF-7
[9] = MCF7, 48 h, read-out: EC50 ± SD MCF-7
[10] = MCF7, 72 h, read-out: EC50 ± SD MCF-7
[11] = 24 h, 48 h and 72 h, read-out: EC50 MDA-MB-231
[12] = 24 h, read-out: EC50 ± SD MDA-MB-231
[13] = 48 h, read-out: EC50 ± SD MDA-MB-231
[14] = 72 h, read-out: EC50 ± SD MDA-MB-231

| EC50 [1, 8] [µM] | EC50 [1, 9] [µM] | EC50 [1, 10] [µM] | EC50 [2, 12] [µM] | EC50 [2, 13] [µM] | EC50 [2, 14] [µM] | melting point [°C] | remaining activity at 5 µM [4] [%] | remaining activity at 5 µM [5] [%] | remaining activity at 10 µM [5] [%] | remaining activity at 5 µM [6] [%] | remaining activity at 10 µM [6] [%] | remaining activity at 10 µM [4] [%] | Ki [4] [µM] | Compound | cells in G1 [3] [%] | cells in G2M [3] [%] | cells in S [3] [%] | further results |
| --- | --- | --- | --- | --- | --- | --- | --- | --- | --- | --- | --- | --- | --- | --- | --- | --- | --- | --- |
| > 100 | > 100 | > 100 | > 100 | > 100 | > 100 | 69 to 70 | – | – | – | – | – | – | – | CCCCCCCCCCCC(=O)OCCCn1c(C)nc2c(Br)c(Br)c(Br)c(Br)c21 [Compound 6d, (4,5,6,7-Tetrabromo-2-methyl-1H-benzimidazol-1-yl)propyl dodecanoate] | – | – | – | EC50 [1, 7]: > 100 µM; EC50 [2, 11]: > 100 µM |
| – | – | – | – | – | – | – | 2.3 ± 0.1 | 0 | 0 | 0 | 0 | – | – | O=C(O)c1ccc2c(c1)nc(Nc1cccc(Cl)c1)c1ccncc12 [CX-4945, silmitasertib, reference compound] | 33.6 | 22.0 | 44.4 | – |

The next lines start with the compound.

| Compound | EC50 [1, 8] [µM] | EC50 [1, 9] [µM] | EC50 [1, 10] [µM] | EC50 [2, 12] [µM] | EC50 [2, 13] [µM] | EC50 [2, 14] [µM] | melting point [°C] | remaining activity at 5 µM [4] [%] | remaining activity at 5 µM [5] [%] | remaining activity at 10 µM [5] [%] | remaining activity at 5 µM [6] [%] | remaining activity at 10 µM [6] [%] | remaining activity at 10 µM [4] [%] | Ki [4] [µM] | cells in G1 [3] [%] | cells in G2M [3] [%] | cells in S [3] [%] | further results |
| --- | --- | --- | --- | --- | --- | --- | --- | --- | --- | --- | --- | --- | --- | --- | --- | --- | --- | --- |
| CCCCCCCCCCCC(=O)OCCCn1cnc2c(Br)c(Br)c(Br)c(Br)c21 [Compound 3d, 3-(4,5,6,7-Tetrabromo-1H-benzimidazol-1-yl)propyl dodecanoate] | > 100 | > 100 | > 100 | > 100 | > 100 | > 100 | 59 to 60 | – | – | – | – | – | – | – | – | – | – | EC50 [1, 7]: > 100 µM; EC50 [2, 11]: > 100 µM |
| Cc1nc2c(Br)c(Br)c(Br)c(Br)c2[nH]1 [Compound 4, 4,5,6,7-tetrabromo-2-methyl-1H-benzimidazole, reference compound] | 4.12 ± 0.03 | 4.2 ± 0.29 | 2.66 ± 0.19 | 12.8 ± 6.6 | 5.35 ± 0.82 | 4.73 ± 0.48 | – | 8 ± 0.9 | 18.8 ± 1.1 | 7.7 ± 3.3 | 6 ± 0.9 | 2.9 ± 0.2 | 4.5 ± 0.2 | 0.21 ± 0.02 | 53.6 | 16.7 | 29.7 | Ki [6]: 0.11 ± 0.04 µM |
| Cc1nc2c(Br)c(Br)c(Br)c(Br)c2n1CCCO [Compound 5] | 17.6 ± 6.35 | 16 ± 5.31 | 4.9 ± 2.71 | 57.8 ± 20.8 | 21 ± 9.85 | 9.99 ± 0.44 | 227 to 230 | 9.3 ± 2.6 | 26.1 ± 3.5 | 16.3 ± 1 | 14.2 ± 2 | 9.1 ± 0.6 | 3.4 ± 0.3 | 0.15 ± 0.08 | 60.2 | 13.5 | 26.3 | Ki ([5]; calculated from IC50 by Cheng and Prusoff equation): 0.2 ± 0.08 µM; Ki [6]: 0.05 ± 0.01 µM |
| CCCCCC(=O)OCCCn1cnc2c(Br)c(Br)c(Br)c(Br)c21 [Compound 3b, 3-(4,5,6,7-Tetrabromo-1H-benzimidazol-1-yl)propyl hexanoate] | 39.6 ± 1.06 | 28.4 ± 1.71 | 24.8 ± 1.33 | 95.6 ± 20.4 | 32.2 ± 3.26 | 27.3 ± 1.26 | 65 to 67 | 85 ± 0.1 | 89.3 ± 8 | 83 ± 13 | 85.5 ± 8.3 | 83.1 ± 7.5 | 74.2 ± 11.2 | – | 60.5 | 12.2 | 27.3 | – |
| OCCCn1cnc2c(Br)c(Br)c(Br)c(Br)c21 [Compound 2] | 24.1 ± 1.39 | 20.1 ± 1.36 | 19.6 ± 1.68 | 54.6 ± 4.32 | 27.2 ± 0.49 | 20.6 ± 0.86 | – | 17.2 ± 2.3 | – | – | – | – | 10.1 ± 1 | 0.42 ± 0.02 | 51.0 | 14.4 | 34.6 | – |
| CCCC(=O)OCCCn1cnc2c(Br)c(Br)c(Br)c(Br)c21 [Compound 3a, (4,5,6,7-Tetrabromo-1H-benzimidazol-1-yl)propyl butanoate] | 29.3 ± 1.24 | 23.1 ± 0.77 | 21.5 ± 1.86 | 40.8 ± 1.58 | 27.8 ± 1.31 | 24.5 ± 0.48 | 96 to 97 | 65 ± 2.8 | 71 ± 9.5 | 59.1 ± 3.7 | 58 ± 4 | 34.8 ± 3.4 | 24.4 ± 0.9 | 2.23 ± 0.07 | 57.8 | 13.8 | 28.4 | – |
